Measurements published in patent publication US10233157B2, “SIK inhibitor for use in a method of treating an inflammatory and/or immune disorder” (Dana-Farber Cancer Institute, Inc., priority 2012, dated 2019).
“Also recorded” adds a separate entry of the source.

Key:
[1] = tested on: CRTC3; assay: IL-10 production in macrophages after siRNA knockdown of CRTC3; format: cell-based, mouse; details: TLR/LPS-stimulated macrophages
Description: BMDMs were transfected with siRNA oligonucleotides against CRTC1, CRTC2, CRTC3 or non-targetting oligonucleotides as a negative control. […] Gene expression was quantified by qPCR and reported relative to mRNA levels measured in untreated cells (1.0). Knockdown efficiency was monitored by qPCR (mean±SD, n=4).
RNAi in Macrophages RAW264.7 cells or BMDMs were transfected with 100 pmol of SMARTpool siRNA oligos against CREB, CRTC1, CRTC2, CRTC3 or a non-targetting control (Dharmacon) using AMAXA nucleofection. Cells were cultured for 24 h prior to incubation with inhibitors for 1 h followed by stimulation for 1 h with 100 ng/ml LPS. Gene expression was measured by real-time quantitative PCR. For shRNA knockdown of SIKs, lentivirus was generated according to the manufacturer's instructions (Sigma) and RAW264.7 cells were infected using virus harvested 48 and 72 h post-transfection. Infected cells were selected using 3 μg/ml puromycin. QPCR

[2] = tested on: STAT3; assay: Immunoblotting of STAT3 phosphorylation in LPS-stimulated macrophages; format: cell-based, mouse
Description: FIGS. 2A to 2G. […] As in A except that cells were stimulated for 2 h with LPS.
(§1) Bone-marrow derived macrophages were differentiated for 7 days in DMEM supplemented with 5 ng/ml recombinant M-CSF (R&D systems), 2 mM glutamine, 10% foetal calf serum, penicillin and streptomycin.
(§2) Cells were rinsed in ice-cold PBS and extracted in lysis buffer (50 mM Tris/HCl pH 7.4, 1 mM EDTA, 1 mM EGTA, 50 mM NaF, 5 mM sodium pyrophosphate, 10 mM sodium α-glycerol 1-phosphate, 1 mM dithiothreitol, 1 mM sodium orthovanadate, 0.27 M sucrose, 1% (v/v) Triton X-100, 1 μg/ml aprotinin, 1 μg/ml leupeptin and 1 mM phenylmethylsulphonyl fluoride). Cell extracts were clarified by centrifugation at 14000×g for 10 min at 4° C. and protein concentrations determined using the Bradford assay. To detect proteins in cell lysates, 20 μg of protein extract was separated by SDS-PAGE. After transfer to PVDF membranes, proteins were detected by immunoblotting and visualized by treating the blots with ECL (Amersham) followed by autoradiography. The antibody recognizing CREB phosphorylated at Ser133 was from Cell Signalling Technology and the one detecting α-tubulin was obtained from Sigma.

[3] = tested on: LPS-stimulated BMDMs; assay: Expression of macrophage markers in LPS-stimulated BMDMs (qPCR); format: cell-based, mouse; details: for LPS-stimulated expression of SPHK1, LIGHT and Arginase 1: 500 nM
Description: FIGS. 10A to 10E. Inhibition of the LKB1-SIK-CRTC3-IL10 signaling axis drives the expression of markers of regulatory macrophages. (FIG. 10A) Effect of SIK inhibitors on the LPS-stimulated expression of LIGHT, SPHK1, Arg1 and IL-1ra (n=4, mean±SD). […] (FIG. 10C) Elevated expression of markers of regulatory macrophage in LKB1−/− macrophages. BMDMs were generated from LysM-Cre/LKB1+/+ and LysM-Cre/LKB1flox/flox mice and stimulated with 100 ng/ml LPS (mean±SD, n=3). (FIG. 10D) CRTC3 is required for the induction of markers of regulatory macrophages. […] LIGHT and SPHK1 mRNA was measured at 2 h and Arg1 at 8 h post-LPS stimulation (mean±SD, n=4). […] The experiment was carried out as in (FIG. 10D) except that BMDMs were generated from IL-10+/+ and IL-10−/− mice (mean±SD, n=4).
mRNA was extracted from cells using the RNeasy Micro Kit following the manufacturers' instructions (Qiagen). cDNA was generated from 1 μg of total RNA using the iScript cDNA synthesis kit and quantified by qPCR using the SsoFast EvaGreen Supermix on a CFX96 real time system (Bio-Rad Laboratories). The relative expression of each gene was calculated from Ct values using the Pfaffl method (5) and was normalized against the mRNA levels of 18S RNA or GAPDH. Results are reported relative to untreated control cells, which was set to 1. The following primers were used: […]

[4] = tested on: LPS-stimulated macrophages; assay: Cytokine secretion in TLR-stimulated bone-marrow derived macrophages; format: cell-based, mouse
Description: as §1
Following stimulation with ligands, the cell culture medium was removed, clarified by centrifugation for 10 min at 14000×g and the concentration of TNFα, IL-6, IL-10, IL-12p40, and RANTES were measured using the Bio-Plex Pro Assay system from Bio-Rad. IFNβ was measured using an ELISA kit from R&D Systems according to the manufacturers' instructions.
RNA was extracted using the RNeasy Micro Kit (Qiagen). cDNA was generated using the iScript cDNA synthesis kit and quantified by qPCR using the SsoFast EvaGreen Supermix (Bio-Rad Laboratories). […] Fold-induction for each gene was reported relative to untreated control cells, which was set to 1. The concentrations of TNFα, IL-6, IL-10, IL-12p40, and RANTES in culture supernatants were measured using the Bio-Plex Pro Assay system from Bio-Rad. Further details in supplementary information.
Following stimulation with ligands, the cell culture medium was removed, clarified by centrifugation for 10 min at 14000×g and the concentration of TNFα, IL-6, IL-10, IL-12p40 and RANTES were measured using the Bio-Plex Pro Assay system from Bio-Rad. IL-1ra and IFNβ were measured using ELISA kits from R&D Systems.

[5] = tested on: CREB; assay: Immunoblotting of CREB phosphorylation in LPS-stimulated macrophages; format: cell-based, mouse
Description: Bone-marrow derived macrophages were differentiated for 7 days in DMEM supplemented with 5 ng/ml recombinant M-CSF (R&D systems), 2 mM glutamine, 10% foetal calf serum, penicillin and streptomycin. […]
as §2

[6] = tested on: AMPK-related kinases; format: biochemical; details: members of the AMPK subfamily other than SIKs
Description: Recombinant SIK1, SIK2, SIK3 were expressed as GST-fusion proteins in HEK293 cells and purified on a glutathione-Sepharose column. […] FLAG-CRTC3 was immunoprecipitated using anti-FLAG M2 agarose, washed in kinase buffer (50 mM Tris/HCl pH 7.4, 10 mM Mg acetate, 0.1 mM EGTA, 2 mM DTT) and reactions initiated by adding 4 U/ml recombinant kinase with 0.1 mM ATP (specific activity 3000 cpm/pmol). Phosphorylation of CRTC3 was monitored by autoradiography as well as immunoblotting using phosphospecific antibodies raised against Ser162, Ser329 and Ser370. […] Kinase profiling was performed as previously described (7) and performed by the International Centre for Kinase Profiling (www.kinase-screen.mrc.ac.uk).

Row | SMILES | effect of compound on IL-10 production after siRNA knockdown of CRTC3 [1] | LPS-stimulated phosphorylation of STAT3 ([2]; 2 μM MRT67307) | phosphorylation of STAT3 ([2]; LPS-stimulated macrophages from IL-10−/− mice, presence or absence of compound) | IL-1ra mRNA ([3]; LPS-stimulated macrophages) | mRNAs of regulatory macrophage markers (arginase-1, SPHK1, LIGHT) ([3]; TLR/LPS-stimulated macrophages) | switch of macrophage programme from classically activated towards regulatory phenotype ([3]; quiescent macrophages) | IFNβ secretion ([4]; LPS) | IL-10 secretion ([4]; LPS-stimulated macrophages) | pro-inflammatory cytokine secretion ([4]; LPS-stimulated macrophages) | IL-10 secretion ([4]; in response to TLR ligands) | IL-12p40 secretion ([4]; in response to TLR ligands) | phosphorylation of CREB at Ser133 induced by LPS [5] | inhibition of AMPK-related kinases [6] | LPS-stimulated expression of SPHK1, LIGHT and Arginase 1 ([3]; IL-10−/− macrophages) | LPS-stimulated expression of SPHK1, LIGHT and Arginase 1 ([3]; cells treated with CRTC3 siRNA)
1 | O=C(NCCCNc1nc(Nc2cccc(CN3CCOCC3)c2)ncc1C1CC1)C1CCC1 [MRT67307] | completely suppressed the effects | increased | no phosphorylation of STAT3 occurred | greatly increased | stimulating the production | switched their maturation programme from the classically activated route towards the regulatory phenotype | potently inhibited | stimulate IL-10 secretion in a dose dependent manner; also recorded: far higher levels of IL-10 | much lower levels of pro-inflammatory cytokines | high levels of IL-10 | low levels of IL-12p40 | little effect | potently inhibits | – | –
2 | COc1ccc(N(C(=O)Nc2c(C)cccc2C)c2cc(Nc3ccc(N4CCN(C)CC4)cc3)ncn2)c(OC)c1 [HG-9-91-01, 1-(2,4-dimethoxyphenyl)-3-(2,6-dimethylphenyl)-1-(6-((4-(4-methylpiperazin-1-yl)phenyl)amino)pyrimidin-4-yl)urea] | abolishes the effects; also recorded: CRTC3 was required | – | – | – | – | – | – | stimulate IL-10 secretion in a dose dependent manner; also recorded: increased | greatly suppressed | – | – | – | did not inhibit any other member | greatly reduced | did not occur
